Results from publication PMC6572376, “N1-Propargylguanosine Modified mRNA Cap Analogs: Synthesis, Reactivity, and Applications to the Study of Cap-Binding Proteins” (Molecules, 2019).

How the values were obtained:
murine eIF4E = murine eIF4E (Mus musculus, UniProt P63073); assay: Pyrene fluorescence intensity competition binding assay for eIF4E
Description: The prime role of the mRNA cap is to participate in initiation of translation through binding with eIF4E. Therefore, we investigated how the substitution at the N1 position influences the interaction between the cap analogs and eIF4E. To this end, we performed binding competition experiments with a Py-labeled m^7GTP analog as previously described. Thence, we determined IC50 values and calculated binding constants values (KD) for the cap analog-eIF4E complexes (Table 1, Figure 2). […] Additionally, the differences identified among studied compounds derived from triphosphate chain modifications were in agreement with previously published results.
A previously described pyrene fluorescence intensity binding method was used to determine the dissociation constants of the nonfluorescent ligands binding to the eIF4E protein in a competitive binding experiment. The experiments were performed in 96-well, black, non-binding assay plates with point fluorescence measurements (λexc = 345 nm; λem = 378 nm). Each well contained a buffer (50 mM Hepes/KOH pH = 7.2 containing 100 mM KCl and 0.5 mM EDTA), 10 nM of pyrene-labeled 7-methylguanosine pentaphosphate probe, ligand 1–5 or m^7Gp3G (half-log dilutions of Clig from 100 μM to 0.003 μM), and 75 nM of eIF4E protein. The reagents and added protein were pre-incubated for 15 min at 30 °C and stirred at 300 rpm. Measurements were performed in three different temperatures: At 20, 30, and 37 °C. A previously derived Equation (1) was used to calculate the inhibition (dissociation) constant KI of a competitive ligand according to the dependence of the recorded fluorescence intensity on the inhibitor concentration. (1) KI=IC50−[Pt]+[PL]50(KD/[L]50+1)/[L]50/KD+[P]0/KD+1 where IC50 is the inhibitor concentration required to replace 50% of the fluorescent probe from the protein binding site, [Pt] is the total protein concentration, [PL]50 is the protein–probe complex concentration at 50% inhibition, [L]50 is the free probe concentration at 50% inhibition, and [P]0 is the free protein concentration without inhibition.
In order to determine IC50 value, we used Origin® 2017 (OriginLab Corp., Northampton, MA, USA) software to fit the curve described by the derived Equation (2) to the measured fluorescence intensity values for various inhibitor concentrations. (2) F=F0Fmax−F0/1+10^(log(IC50)−log(Clig.))p where Clig. is the concentration of non-fluorescent ligand.
Figure 2 Dose–response curves for compounds 1–5 and m^7Gp3G plotted from a competition binding assay for meIF4E [16]. eIF4E (75 nM) and a pyrene-labeled fluorescent probe (10 nM) were incubated at 30 °C with the indicated concentrations of the investigated compounds (1–5 or m^7Gp3G as a reference).

[1] = target: T1, human decapping scavenger enzyme (hDcpS) (Homo sapiens, UniProt Q96C86); assay: in vitro; settings: pH 7.6
T1 sequence (Q96C86 1-337): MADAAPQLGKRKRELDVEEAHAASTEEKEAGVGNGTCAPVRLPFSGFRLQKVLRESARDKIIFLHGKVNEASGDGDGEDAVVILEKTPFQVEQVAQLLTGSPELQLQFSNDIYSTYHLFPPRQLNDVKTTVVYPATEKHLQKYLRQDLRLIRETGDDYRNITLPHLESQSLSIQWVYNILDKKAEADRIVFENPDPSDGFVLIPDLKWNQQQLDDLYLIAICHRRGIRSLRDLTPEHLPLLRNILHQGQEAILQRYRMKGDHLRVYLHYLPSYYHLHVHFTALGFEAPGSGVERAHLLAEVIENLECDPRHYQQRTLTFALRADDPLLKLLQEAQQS
Experimental: (§2) Susceptibility of the new cap analogs to hydrolysis by human decapping scavenger enzyme (hDcpS) was investigated to assess the influence of N1 substitution on cap analogs recognition by DcpS. Caps 1–5 or m^7Gp3G (30 µM each) were incubated with hDcpS (30 nM) at 30 °C. Then, reaction samples were thermally deactivated and analyzed by RP-HPLC.
(§3) Enzymatic reactions with human DcpS were carried out in 50 mM Tris/HCl, 200 mM KCl, 0.5 mM EDTA, pH = 7.6 buffer at 30 °C for 30 nM hDcpS and 30 µM of a cap analog studied. As a control, m^7Gp3G was used. Cap analogs concentration was determined spectrophotometrically (absorption coefficient used in calculations is equal to 22,600 mL/mmol/cm in 0.1 M phosphate buffer pH = 7.0). For 1 and m^7Gp3G, 3 independent experiments were performed. Aliquots were terminated by heat inactivation for 3 min at 95 °C. Samples were analyzed with RP-HPLC using method E.
(§4) Data are average of triplicate experiments ± SD.

[2] = target: T1, human decapping scavenger enzyme (hDcpS); assay: Susceptibility to hDcpS hydrolysis monitored by RP-HPLC; settings: 30 µM cap analog, 30 nM hDcpS, 30 °C
Experimental: as §2, §3, §4

murine eIF4E (meIF4E) = murine eIF4E (meIF4E) (Mus musculus, UniProt P63073); assay: Microscale thermophoresis direct binding to meIF4E; settings: MST, 25 nM probe, 25 °C, 1:1 binding model, triplicate
Experimental: To this end, fluorescent probes (25 nM) were mixed with increasing concentrations of meIF4E and microscale thermophoresis was measured for each sample (Figure S5). Baseline corrected normalized fluorescences (ΔFn) determined from the MST traces were plotted as a function of protein concentration. KD values could then be calculated from the resulting binding curves (Figure 5). […] These findings align with those determined for the parent compounds 1, 2, and 3 (Table 1).
Probes 6, 11, and 12 were dissolved in MST buffer (50 mM HEPES/KOH, 100 mM KCl, 0.5 mM EDTA, pH = 7.2, 0.2% Tween 20) to obtain a 50 nM stock solution. Murine eIF4E (meIF4E) was dissolved in MST buffer in a 16 point, 1:1 dilution series in a 10.0 µM to 0.30 nM concentration range. Equal volumes (10 µL) of meIF4E and probe were combined to obtain the following assay concentrations: 25 nM probe and 5.0 µM to 0.15 nM meIF4E for the assay.
(§1) For both assays, samples were loaded into standard Monolith™ NT.115 Series Capillares (NanoTemper Technologies, Cambridge, MA, USA). MST measurements were performed on Monolith NT.115 instrument (NanoTemper Technologies, Cambridge, MA, USA) at 25 °C. Measurements parameters were set as follows: 40% LED Blue power, Medium MST power. Data were obtained for three independently pipetted measurements and analyzed in PALMIST v. 1.4.4 [36] using a 1:1 binding model to calculate KD, using the signal from an MST-on time of 20 s (for eIF4E assay: Cold region start, −3 s; hot region start, 0.5 s; for DcpS assay: Cold region start, −3 s; hot region start 19 s), confidence intervals were calculated with error surface projection (ESP) method. Plots presented were generated using GUSSI v. 1.4.2 [37].
Figure 5 Direct binding microscale thermophoresis (MST) experiments with eIF4E and DcpS. (a) MST binding curves for probes 6, 11, 12, and meIF4E. Probe 6, 11, or 12 (50 nM) was mixed with a half-log dilution series of an meIF4E solution (10 µM–0.30 nM). (b) MST binding curves for probes 11 and 12 and DcpS. […] Data were analyzed in Palmist v. […]

human DcpS (hDcpS) = target: T2, human DcpS (hDcpS) (Homo sapiens, UniProt Q96C86); assay: Microscale thermophoresis direct binding to hDcpS; settings: for Kd: MST, 25 nM probe, 25 °C, 1:1 binding model, triplicate
T2 construct: made in house
T2 sequence (Q96C86 1-337): T1 sequence (Q96C86 1-337)
Experimental: With these promising results in mind, we decided to use the same approach for studying DcpS enzyme. For this purpose, cleavage-resistant probes 11 and 12 were used. Both probes were high-affinity ligands for DcpS. […] This is in agreement with previously reported data on the influence of triphosphate chain modifications on cap-DcpS interaction.
Probes 11 and 12 were dissolved in MST buffer (50 mM HEPES/KOH, 100 mM KCl, 0.5 mM EDTA, pH = 7.2, 0.2% Tween 20) to obtain a 50 nM stock solution. In study of a probe 11, human DcpS (hDcpS) was dissolved in MST buffer in a 16 point 1:1 dilution series in a 2.0 µM to 0.061 nM concentration range. Equal volumes (10 µL) of hDcpS and the probe were mixed together to obtain the following assay concentrations: 25 nM probe and 1.0 µM to 0.030 nM hDcpS. In study of a probe 12, hDcpS was dissolved in MST buffer in a 16 point 2:1 dilution series in a 700 nM to 1.60 nM concentration range. Equal volumes (10 µL) of hDcpS and the probe were mixed together to obtain the following assay concentrations: 25 nM probe and 350 nM to 0.80 nM hDcpS.
as §1
Figure 5 Direct binding microscale thermophoresis (MST) experiments with eIF4E and DcpS. (a) MST binding curves for probes 6, 11, 12, and meIF4E. […] Data were analyzed in Palmist v. […]

[3] = 30 °C, 75 nM eIF4E, 10 nM pyrene-labeled probe, triplicate
[4] = 30 °C, calculated from IC50 values

Sequence of murine eIF4E (meIF4E) (P63073 whole entry): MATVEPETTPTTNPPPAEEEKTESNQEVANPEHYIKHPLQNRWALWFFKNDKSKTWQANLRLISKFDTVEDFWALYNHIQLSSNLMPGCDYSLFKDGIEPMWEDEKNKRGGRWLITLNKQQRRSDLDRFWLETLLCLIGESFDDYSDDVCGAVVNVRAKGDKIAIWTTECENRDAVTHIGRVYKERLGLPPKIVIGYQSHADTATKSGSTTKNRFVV
Sequence of murine eIF4E (P63073 whole entry): as above

IC50 (murine eIF4E; 20 °C) [nM]	Kd (murine eIF4E; 20 °C, calculated from IC50) [nM]	IC50 (murine eIF4E; [3]) [nM]	Kd (murine eIF4E; [4]) [nM]	IC50 (murine eIF4E; 37 °C) [nM]	Kd (murine eIF4E; 37 °C, calculated from IC50) [nM]	half-life at 30 µM [1] [min]	Kd (murine eIF4E (meIF4E)) [nM]	Kd (human DcpS (hDcpS)) [nM]	Fold greater affinity for DcpS than probe 11 (human DcpS (hDcpS); MST KD ratio) [fold]	Half-life [2] [min]	SMILES	Susceptibility to hydrolysis by hDcpS ([2]; RP-HPLC)
2920 ± 190	268 ± 40	3570 ± 250	305 ± 45	3680 ± 700	371 ± 82	15.8	–	–	–	–	C#CCn1c(N)nc2c(ncn2C2OC(COP(=O)(O)OP(=O)([O-])OP(=O)(O)OCC3OC(n4c[n+](C)c5c(O)nc(N)nc54)C(O)C3O)C(O)C2O)c1=O (stereo not drawn) [Compound 1, P1-(N1-Propargylguanosin-5′-yl) P3-(N7-methylguanosin-5′-yl) triphosphate]	efficiently cleaved by DcpS but more slowly than m^7Gp3G
6570 ± 490	610 ± 94	6370 ± 730	548 ± 95	8200 ± 790	836 ± 121	–	–	–	–	–	C#CCn1c(N)nc2c(ncn2C2OC(COP(=O)([O-])OP(=O)(O)CP(=O)(O)OCC3OC(n4c[n+](C)c5c(O)nc(N)nc54)C(O)C3O)C(O)C2O)c1=O (stereo not drawn) [Compound 2, P1-(N7-Methylguanosin-5′-yl) P3-(N1-propargylguanosin-5′-yl) 1,2-methylenetriphosphate]	–
3060 ± 160	281 ± 41	3480 ± 220	297 ± 43	3750 ± 890	379 ± 100	–	–	–	–	–	C#CCn1c(N)nc2c(ncn2C2OC(COP(=O)([O-])OP(=O)(O)NP(=O)(O)OCC3OC(n4c[n+](C)c5c(O)nc(N)nc54)C(O)C3O)C(O)C2O)c1=O (stereo not drawn) [Compound 3, P1-(N7-Methylguanosin-5′-yl) P3-(N1-propargylguanosin-5′-yl) 1,2-imidotriphosphate]	–
5510 ± 330	511 ± 75	6040 ± 460	520 ± 78	8100 ± 610	826 ± 109	–	–	–	–	–	C#CCn1c(N)nc2c(ncn2C2OC(COP(=O)(O)CP(=O)(O)OP(=O)([O-])OCC3OC(n4c[n+](C)c5c(O)nc(N)nc54)C(O)C3O)C(O)C2O)c1=O (stereo not drawn) [Compound 4, P1-(N7-Methylguanosin-5′-yl) P3-(N1-propargylguanosin-5′-yl) 2,3-methylenetriphosphate]	–
1850 ± 150	168 ± 26	2160 ± 200	182 ± 29	3210 ± 330	324 ± 48	–	–	–	–	–	C#CCn1c(N)nc2c(ncn2C2OC(COP(=O)(O)NP(=O)(O)OP(=O)([O-])OCC3OC(n4c[n+](C)c5c(O)nc(N)nc54)C(O)C3O)C(O)C2O)c1=O (stereo not drawn) [Compound 5, P1-(N7-Methylguanosin-5′-yl) P3-(N1-propargylguanosin-5′-yl) 2,3-imidotriphosphate]	–

Further lines, the compound ahead of its results:

SMILES	IC50 (murine eIF4E; 20 °C) [nM]	Kd (murine eIF4E; 20 °C, calculated from IC50) [nM]	IC50 (murine eIF4E; [3]) [nM]	Kd (murine eIF4E; [4]) [nM]	IC50 (murine eIF4E; 37 °C) [nM]	Kd (murine eIF4E; 37 °C, calculated from IC50) [nM]	half-life at 30 µM [1] [min]	Kd (murine eIF4E (meIF4E)) [nM]	Kd (human DcpS (hDcpS)) [nM]	Fold greater affinity for DcpS than probe 11 (human DcpS (hDcpS); MST KD ratio) [fold]	Half-life [2] [min]	Susceptibility to hydrolysis by hDcpS ([2]; RP-HPLC)
C[n+]1cn([C@@H]2O[C@H](COP(=O)(O)OP(=O)([O-])OP(=O)(O)OC[C@H]3O[C@@H](n4cnc5c(=O)n(Cc6cn(CCCNC(=O)c7ccc8c(c7)C(=O)OC87c8ccc(O)cc8Oc8cc(O)ccc87)nn6)c(N)nc54)[C@H](O)[C@@H]3O)[C@@H](O)[C@H]2O)c2nc(N)nc(O)c21 [Compound 6, m^7Gp3G-N1-5FAM]	–	–	–	–	–	–	–	50	–	–	–	–
C[n+]1cn([C@@H]2O[C@H](COP(=O)(O)CP(=O)(O)OP(=O)([O-])OC[C@H]3O[C@@H](n4cnc5c(=O)n(Cc6cn(CCCNC(=O)c7ccc8c(c7)C(=O)OC87c8ccc(O)cc8Oc8cc(O)ccc87)nn6)c(N)nc54)[C@H](O)[C@@H]3O)[C@@H](O)[C@H]2O)c2nc(N)nc(O)c21 [Compound 11, m^7GpCH2ppG-N1-5FAM]	–	–	–	–	–	–	–	201	38	–	–	–
C[n+]1cn([C@@H]2O[C@H](COP(=O)(O)NP(=O)(O)OP(=O)([O-])OC[C@H]3O[C@@H](n4cnc5c(=O)n(Cc6cn(CCCNC(=O)c7ccc8c(c7)C(=O)OC87c8ccc(O)cc8Oc8cc(O)ccc87)nn6)c(N)nc54)[C@H](O)[C@@H]3O)[C@@H](O)[C@H]2O)c2nc(N)nc(O)c21 [Compound 12, m^7GpNHppG-N1-5FAM]	–	–	–	–	–	–	–	53	14	2.5	–	–
Cn1c[n+]([C@@H]2O[C@H](COP(=O)(O)OP(=O)(O)OP(=O)(O)OC[C@H]3O[C@@H](n4cnc5c(=O)[nH]c(N)nc54)[C@H](O)[C@@H]3O)[C@@H](O)[C@H]2O)c2nc(N)[nH]c(=O)c21 [m^7Gp3G, reference compound]	3040 ± 260	279 ± 45	3460 ± 300	294 ± 46	3310 ± 870	334 ± 96	–	–	–	–	5.703	–
